By inhibition is commonly meant the drop in the measured response relative to a control, in per cent.

Test [1] relates to Human Granulocytes. As to the kind of experiment: FMLP-induced superoxide production of human granulocytes, 10 μM test compound. Particulars: 10 nM FMLP, 400 000 granulocytes. The format is cell-based. The protocol: Effects of Test Compounds on Superoxide Production of Human Granulocytes
(§1) Granulocytes were isolated from the heparinized blood from healthy volunteers. The superoxide assay was essentially that of J. M. McCord and I Fridovich (J. Biol. Chem. 244:6049-6055 (1969)) as modified by G Carlin et al. (Pharmacol. Toxicol 65:121-127 (1989)). The reaction mixture contained (final concentrations) 125 μM cytochrome C in Dulbeccos phosphate buffer with Mg and Ca, 10 μM test compound and 400 000 granulocytes treated with 5 μg/ml of cytochalasin B immediately before the experiment. This reaction mixture was preincubated at 37° C. for 10 minutes, whereafter 10 nM N-formyl-L-methionyl-L-leucyl-L-phenylalanine was added to start the reaction, making the final volume 1 ml. After 10 minutes the tubes were centrifuged and the absorbance of the supernatant at 540 and 550 nm was measured. The superoxide production was expressed as the difference in absorbance at these wavelengths.

The subject of test [2] is human lymphocytes. Kind of test: Concanavalin A-induced proliferation of human lymphocytes ([3H]-thymidine). The format is cell-based. Particulars: Lymphocyte, 72 h, 250 μM test compound, 2.5 μg/ml Concanavalin A, 3 days, 2 experiments. As to the method: (§2) Effect of Compounds on Human Lymphocyte Proliferation Peripheral blood mononuclear cells were isolated from heparinized blood from healthy volunteers by density gradient centrifugation as described by Bain and Pshyk, Transplantation Proc, 4:163-164 (1972). Cell proliferation induced by Concanavalin A was measured in a standard assay such as described in Soderstrom et at., Scand J Immunol, 32:503-516 (1990) using 5% fetal bovine serum in the culture medium. The reaction mixture (final concentrations) consisted of 200 000 cells stimulated with 2.5 μg/ml Concanavalin A and test compounds in a total volume of 0.2 ml. The test compounds were added at the start of the assay, which was run for a total of three days with addition ofradioactive [3H]-thymidine during the last 18 h. Cell bound radioactivity was measured in a liquid scintillation counter.

For test [3], the system named is human lymphocytes and granulocytes. As to the kind of experiment: Overall activity judged from the results of Examples 40 to 42. As to the method: as §2, with “Peripheral” for “Effect of Compounds on Human Lymphocyte Proliferation Peripheral”
as §1
as §1, with “et at.” for “et al.”, “Ca, 100” for “Ca, 10”, “and 600” for “and 400”, “whereafter 100” for “whereafter 10”

The test system of test [4] is Human Granulocytes. Kind of test: FMLP-induced superoxide production of human granulocytes, 100 μM test compound. The class given is cell-based. Particulars: 100 nM FMLP, 600 000 granulocytes. The protocol:
Effects of Test Compounds on Superoxide Production of Human Granulocytes at 100 um Concentration
as §1, with “et at.” for “et al.”, “Ca, 100” for “Ca, 10”, “and 600” for “and 400”, “whereafter 100” for “whereafter 10”

In the case of `Cc1cc(NS(=O)(=O)c2ccc(C=Cc3ccc(O)c(C(=O)O)c3)cc2)no1` [Example 18, 2-Hydroxy-5-[2-[4-[(5-methyl-3-isoxazolyl)aminosulfonyl]phenyl]ethenyl]benzoic acid], the inhibition at 10 µM in test [1] was 44.2%. Further, the inhibition at 250 µM in test [2] was 43.8%.
Taken in the same sequence, the figures for `Cc1ccnc(NS(=O)(=O)c2ccc(C=Cc3ccc(O)c(C(=O)O)c3)cc2)n1` [Example 19, 2-Hydroxy-5-[2-[4-[(4-methyl-2-pyrimidyl)amino-sulfonyl]phenyl]ethenyl]benzoic acid ethanol solvate (2:1)] were 65.9% and 10.3%.
The like results for `Cc1cccnc1NS(=O)(=O)c1ccc(C=Cc2ccc(O)c(C(=O)O)c2)cc1` [Example 4, 2-Hydroxy-5-[2-[4-[(3-methyl-2-pyridinylamino)sulfonyl]phenyl]ethenyl]benzoic acid] were, in that order, 76.9% and 92.3%.
The like results for `O=C(C=Cc1ccc(S(=O)(=O)Nc2ccccn2)cc1)c1ccc(O)c(C(=O)O)c1` [Example 29, 2-Hydroxy-5-[1-oxo-3-[4-[(2-pyridinylamino)sulfonyl]phenyl]-2-propenyl]benzoic acid] were, in that order, 33.4% and 66%.
For `CN(c1ccccn1)S(=O)(=O)c1ccc(C=Cc2ccc(O)c(C(=O)O)c2)cc1` [Example 22, 2-Hydroxy-5-[2-[4-[N-methyl-(2-pyridinyl)aminosulfonyl]phenyl]ethenyl]benzoic acid], the inhibition at 10 µM in test [1] was 85.5%. Also, the Overall activity ranking entry in test [3] is on record as “most active”. In addition, the inhibition at 250 µM in test [2] amounted to 99.8%.
As for `O=C(O)c1cc(CCc2ccc(S(=O)(=O)Nc3ccccn3)cc2)ccc1O` [Example 26, 2-Hydroxy-5-[2-[4-[(2-pyridinylamino)sulfonyl]phenyl]ethyl]benzoic acid], in test [1], at 10 µM the inhibition was 26.8%. The inhibition at 250 µM in test [2] was determined as 16%.
In test [1], `Cc1cccnc1NS(=O)(=O)c1ccc(CC(=O)c2ccc(O)c(C(=O)O)c2)cc1` [Example 27, 2-Hydroxy-5-[[4-[(3-methyl-2-pyridinylamino)sulfonyl]phenyl]acetyl]benzoic acid] had an inhibition at 10 µM of 32.7%. Further, in test [2], the inhibition at 250 µM stood at 37.3%.
Take `Cc1cccnc1NS(=O)(=O)c1ccc(C=Cc2cc(C(=O)O)c(O)cc2F)cc1` [Example 38, 4-Fluoro-2-hydroxy-5-[2-[4-[(3-methyl-2-pyridinylamino)sulfonyl]phenyl]ethenyl]benzoic acid]: the Overall activity ranking entry in test [3] is reported as “most active”. For the same compound, the inhibition at 250 µM in test [2] turned out to be 100%. The inhibition at 100 µM in test [4] was 98.7%.
On to `O=C(O)c1cc(C=Cc2ccc(S(=O)(=O)Nc3nc4ccc(F)cc4s3)cc2)ccc1O` [Example 21, 2-Hydroxy-5-[2-[4-[[6-fluoro-(2-benzo[d]thiazolyl)]aminosulfonyl]phenyl]ethenyl]benzoic acid], for which 10 µM produced 93% inhibition in test [1]. The Overall activity ranking entry in test [3] is “most active”. Besides, the inhibition at 250 µM in test [2] stood at 99.8%.
Take `Cc1ccc(NS(=O)(=O)c2ccc(C=Cc3ccc(O)c(C(=O)O)c3)cc2)nc1` [Example 15, 2-Hydroxy-5-[2-[4-[(5-methyl-2-pyridinylamino)sulfonyl]phenyl]ethenyl]benzoic acid]: the inhibition at 250 µM in test [2] is 93.9%.
`O=C(O)c1cc(C=Cc2ccc(S(=O)(=O)Nc3ccc(Cl)cn3)cc2)ccc1O` [Example 17, 5-[2-[4-[(5-Chloro-2-pyridinylamino)sulfonyl]phenyl]ethenyl]-2hydroxybenzoic acid] gave an inhibition at 10 µM in test [1] of 71.9%. Also, the Overall activity ranking result in test [3] is “most active”. For the same compound, in test [2], the inhibition at 250 µM came out at 99.5%.
With `O=C(O)c1cc(C#Cc2ccc(S(=O)(=O)Nc3nc4ccc(F)cc4s3)cc2)ccc1O` [Example 34], the inhibition at 250 µM in test [2] was 98%.
Regarding `CC(C)COC(=O)c1cc(C=Cc2ccc(S(=O)(=O)Nc3ccccn3)cc2)ccc1O` [Example 5, Isobutyl 2-hydroxy-5-[2-[4-[(2-pyridinylamino)sulfonyl]phenyl]ethenyl]benzoate], the inhibition at 10 µM in test [1] was 25.8%.
For the compound `O=C(O)c1cc(C#Cc2ccc(S(=O)(=O)Nc3ccccn3)cc2)ccc1O` [Example 1, 2-Hydroxy-5-[[4-[(2-pyridinylamino)sulfonyl]phenyl]ethynyl]benzoic acid], 10 µM produced 71% inhibition in test [1]. The inhibition at 250 µM in test [2] turned out to be 95.6%.
The compound `O=C(O)c1cc(C=Cc2ccc(S(=O)(=O)Nc3cnccn3)cc2)ccc1O` [Example 20, 2-Hydroxy-5-[2-[4-[(2-pyrazinyl)aminosulfonyl]phenyl]ethenyl]benzoic acid] registered an inhibition at 10 µM in test [1] of 35.1%. The inhibition at 250 µM in test [2] was found to be 34.8%.
Regarding `Cc1ccnc(NS(=O)(=O)c2ccc(C#Cc3ccc(O)c(C(=O)O)c3)cc2)c1` [Example 33, 2-Hydroxy-5-[[4-[(4-methyl-2-pyridinyl)amino-sulfonyl]phenyl]ethynyl]benzoic acid], the Overall activity ranking result in test [3] is reported as “most active”. This compound also yielded an inhibition at 100 µM in test [4] of 92.1%.
For `Cc1cccnc1NS(=O)(=O)c1ccc(C#Cc2cc(C(=O)O)c(O)cc2F)cc1` [Example 37, 4-Fluoro-2-hydroxy-5-[[4-[(3-methyl-2-pyridinylamino)sulfonyl]phenyl]ethynyl]benzoic acid], the Overall activity ranking entry in test [3] is “most active”. Also, the inhibition at 250 µM in test [2] was 100%. This compound came in with an inhibition at 100 µM in test [4] of 97.5%.
As to `O=C(O)c1cc(C=Cc2ccc(S(=O)(=O)Nc3ncccc3OCc3ccccc3)cc2)ccc1O` [Example 16, 2-Hydroxy-5-[2-[4-[[3-(phenylmethoxy)-2-pyridinylamino]sulfonyl]phenyl]ethenyl]benzoic acid], testing at 10 µM in test [1] gave an inhibition of 94.6%. In addition, the Overall activity ranking entry in test [3] is given as “most active”. Besides, the inhibition at 250 µM in test [2] was determined as 95.4%.
Consider `O=C(O)c1cc(C#Cc2ccc(S(=O)(=O)Nc3ncccc3OCc3ccccc3)cc2)ccc1O` [Example 31, 2-Hydroxy-5-[[4-[[3-(phenylmethoxy)-2-pyridinylamino]sulfonyl]phenyl]ethynyl]benzoic acid], for which the inhibition at 250 µM in test [2] came to 100%.
The same measure, in the same setting: the value for `CN(c1ccccn1)S(=O)(=O)c1ccc(C#Cc2ccc(O)c(C(=O)O)c2)cc1` [Example 35, 2-Hydroxy-5-[[4-[N-methyl-(2-pyridinyl)aminosulfonyl]phenyl]ethynyl]benzoicacid] was 99%.
Regarding `O=C(O)c1cc(C=Cc2ccc(S(=O)(=O)Nc3ccccn3)cc2)ccc1O` [Example 3, 2-Hydroxy-5-[2-[4-[(2-pyridinylamino)sulfonyl]phenyl]ethenyl]benzoic acid], in test [1], 10 µM produced 55.7% inhibition. Further, the inhibition at 250 µM in test [2] amounted to 73.6%.
As to `O=C(O)c1cc(C#Cc2ccc(S(=O)(=O)Nc3ccc(Cl)cn3)cc2)ccc1O` [Example 32, 5-[[4-[(5-Chloro-2-pyridinylamino)sulfonyl]phenyl]ethynyl]-2hydroxybenzoic acid], the inhibition at 250 µM in test [2] amounted to 100%.
With `Cc1ccnc(NS(=O)(=O)c2ccc(C=Cc3ccc(O)c(C(=O)O)c3)cc2)c1` [Example 25, 2-Hydroxy-5-[2-[4-[(4-methyl-2-pyridinylamino)sulfonyl]phenyl]-ethenyl]benzoic acid ethanol solvate (2:1)], 10 µM produced 45.5% inhibition in test [1].
Regarding `Cc1cccnc1NS(=O)(=O)c1cccc(C#Cc2ccc(O)c(C(=O)O)c2)c1` [Example 39, 2-Hydroxy-5-[[3-[(3-methyl-2-pyridinylamino)sulfonyl]phenyl]ethynyl]benzoicacid], in test [3], the Overall activity ranking result is “most active”. In addition, the inhibition at 250 µM in test [2] was determined as 100%. The compound also yielded an inhibition at 100 µM in test [4] of 93.5%.
`O=C(Cc1ccc(S(=O)(=O)Nc2ccccn2)cc1)c1ccc(O)c(C(=O)O)c1` [Example 28]: in test [1], the inhibition at 10 µM was 17.9%. Besides, in test [2], the inhibition at 250 µM is 15%.

The record behind these values is patent publication US5403930A, “Substituted salicylic acids” (Pharmacia AB, priority 1991, dated 1995).
